Data reported in patent US20100221200A1, “COMPOSITIONS AND METHODS FOR SKIN CARE” (THE OHIO STATE UNIVERSITY RESEARCH FOUNDATION, priority 2007, published 2010).
Square brackets hold non-standard residues; d marks the D form. Peptide text beside a SMILES is read from it.

Columns and labels:
[1] = test system: isolated or transplanted organs including heart, lung and kidneys; settings: cited from earlier work
[2] = test system: summer-active ground squirrels; settings: administered to summer-active ground squirrels; cited from earlier work
[3] = test system: skin of the malar surface of the face; test: Blinded split-face topical application of deltorphin cream: skin appearance and wrinkles; assay type: in vivo
Procedure: (§1) A test subject (body weight ˜71 kg) received an application of 10 μg deltorphin, constituted in an inert base, to the malar surface on the left side of the face extending from the periorbital region to the mandible. The inert base (without the deltorphin) was applied to the right side of the face but the subject was blind to which cream contained the deltorphin. The cream was applied twice daily, in the morning and night. After 3 weeks, the subject was observed.
A test subject (˜55 kg) received an application of 1 μg of deltorphin in an inert base to the malar surface of the right side of the face, with an identical inert cream applied to the left in a blinded fashion (the subject was unaware of which cream contained the active peptide). After three weeks of morning and evening application of the cream (no other topical agents were applied), the subject was scored for appearance.
(§2) A test subject (˜61 kg) received an application of 100 μg of deltorphin in an inert base to the malar surface on the right side, with an equal amount of inert base, but no active peptide, applied blindly to the left side of the face. The two creams were applied twice daily, morning and night, for three weeks prior to being observed.

[4] = test system: skin of the malar surface of the face; test: Blinded split-face topical application of deltorphin cream: local tolerance (irritation, allergy); assay type: in vivo
Procedure: as §1, §2

[5] = Example 1: subject, 10 μg deltorphin in inert base, twice daily, 3 weeks
[6] = Example 3: subject, 100 μg deltorphin in inert base, twice daily, three weeks

CC(C)C[C@@H](NC(=O)[C@H](Cc1ccccc1)NC(=O)CNC(=O)[C@@H](C)NC(=O)[C@@H](N)Cc1ccc(O)cc1)C(=O)O [DADLE, Tyr-D-Ala-Gly-Phe-D-Leu]
viability and preservation of organs [1]: improves the viability and preservation
induction of hibernation [2]: induces hibernation

CSCC[C@H](NC(=O)[C@H](CC(C)C)NC(=O)[C@H](Cc1c[nH]cn1)NC(=O)[C@H](Cc1ccccc1)NC(=O)[C@@H](CCSC)NC(=O)[C@@H](N)Cc1ccc(O)cc1)C(=O)N[C@@H](CC(=O)O)C(N)=O [deltorphin, Tyr-D-Met-Phe-His-Leu-Met-Asp-NH2] (H-Y[dM]FHLMD-NH2)
appearance of treated side of the face versus inert-base side ([3]; Example 1: subject, 10 μg deltorphin in inert base, left side, twice daily, 3 weeks): noticeable improved appearance
wrinkles (fine and moderate) [3, 5]: appeared diminished
wrinkles, particularly in the periorbital region ([3]; Example 2: subject, 1 μg deltorphin in inert base, morning and evening, three weeks): marked reduction in wrinkles
appearance of treated side of the face versus inert-base side ([3]; Example 2: subject, 1 μg deltorphin in inert base, right side, morning and evening, three weeks): noticeable difference was apparent
appearance of treated side of the face versus inert-base side ([3]; Example 3: subject, 100 μg deltorphin in inert base, right side, twice daily, three weeks): significant and visible improvements
wrinkles (fine and deep) [3, 6]: readily notable improvements and diminishment in wrinkles

CSCC[C@H](NC(=O)[C@H](CC(C)C)NC(=O)[C@H](Cc1cnc[nH]1)NC(=O)[C@H](Cc1ccccc1)NC(=O)[C@@H](CCSC)NC(=O)[C@@H](N)Cc1ccc(O)cc1)C(=O)N[C@@H](CC(=O)O)C(N)=O [deltorphin, Tyr-D-Met-Phe-His-Leu-Met-Asp-NH2] (H-Y[dM]FHLMD-NH2)
signs of irritation, redness, heat or swelling [4, 5]: no sign of any irritation, no redness, heat or swelling
eye irritation after inadvertent contact of the cream with the eye ([4]; Example 3: subject, 100 μg deltorphin cream, one occasion, subject's report): without any significant eye irritation or redness
signs of allergy, hypersensitivity or irritation (redness, swelling, heat, pruritus) [4, 6]: no signs of any allergy, hypersensitivity or irritation
